The source of these data is US8017316B2, “Methods and compositions for the identification of insect repellent compounds” (Duke University, priority 2007, dated 2011).

For one test, the system named is painless mutant flies. The test is described as follows: Avoidance Evaluation Chamber assay, painless mutant flies. It is filed as in vivo, Drosophila melanogaster. Here is the method:
(§1) Drosophila Stocks. All fly stocks were maintained on conventional cornmeal-agar-molasses medium under a 12 hour light/12 hour dark cycle at 22° C. Fly strains used were the wild-type Canton-S, the painless mutant pain1 (EP(2)2451), the dTRPA1 mutant (dTRPA1^23-5939/Df(3L)ED4415), the painless− dTRPA1 double mutant pain1; dTRPA1^23-5939, the Or83b mutant W;ΔOr83b (provided by Dr. Hubert Amrein, Duke University, Durham, N.C., United States of America), and the Or83b-painless double mutant pain1; W;ΔOr83b.
(§2) Avoidance Evaluation Chambers: 3% agar (Fisher Scientific, Pittsburgh, Pa., United States of America) and 3% sucrose (Fisher Scientific) was dissolved in distilled H2O. 0.2% (1:500, or 20 mM) N,N-diethyl-3-methylbenzamide (DEET) or 0.01% (1:10000, or 1 mM) allyl-isothiocyanate (AITC) was added and mixed into the agar/sucrose solution immediately before 22 milliliters of solution was poured into each 60 diameter×15 mm HBD Falcon Standard Tissue Culture Dish. The agar was allowed for harden for approximately 1 hour. Using a template below each dish, the agar was then split along the midline with a clean razor blade and half of each plate was excised and placed onto a clean absorbent towel. In order to assess preference, the empty half of each plate was then replaced with solidified 3% agar and 3% sucrose without the addition of DEET or AITC. Care was taken to not contaminate surfaces of toxin and toxin-free agar during this switch.
(§3) Olfactory Desensitization: To prevent most odorant detection, the third antennal segment of each antennae was removed from flies under CO2 anesthesia 24 hours before avoidance trials. Removal of both aristae, but not any part of the antennae, was used as a sham to control for non-specific effects that may have resulted from the surgical procedure.
(§4) Trial Recording: Testing areas (e.g., plates), each containing toxin-containing and toxin-free halves, were placed on a fluorescent-bulb containing light box and arranged so that all fit within the viewfinder of a digital video camera (SONY Handycam; see FIG. 1). Multiple flies to be used on each plate of the trial were sorted under CO2 anesthesia 24 hours before the experiment into glass vials containing fly food. During the experiment, the flies were transferred onto the agar plates by gentle tapping after vials were cooled horizontally on ice. The lids were replaced on the agar plates after fly transfer and animals were allowed a 5-minute acclimation time prior to the start of each trial. The video camera began recording after this acclimation time and ran for 60 minutes. External noise and odors were avoided throughout the trial.
Data Analysis—Avoidance Behavior: Video was downloaded from the digital video camera to a computer using Image Video Mixer (Sony Electronics Inc.) and saved as an MPEG2 file. The movie was then converted to and saved as an image stack at the rate of 1-3 images/second through Image Video Machine (DanDans Digital Media, Boston, Mass., United States of America). Image stacks for each trial were then analyzed at 10 or 15-minute intervals. Each interval was imported and converted to grayscale into ImageJ (Rasband, ImageJ, U.S. National Institutes of Health, Bethesda, Md., United States of America) as a stack and thresholded (Image→Threshold) so that only flies were visible. Care was taken to make sure only flies were visible in each slice since fluorescence in the light box may be of different brightness in each image. The Z-stack Standard Deviation function of ImageJ (Image→Stack→Z-stack→Standard Deviation) was used to visualize the position of all flies throughout each time interval. This inverts and stacks pixels (flies) from each stack image so that the most occupied areas are standardized to be the brightest, and the least occupied areas remain dark. To quantify this amount of time each space was occupied, the “mean gray value” for each side was calculated using the Analyze Measurements menu of ImageJ. […]

In a further test the test system is Or83b mutants. The test is described as follows: Avoidance Evaluation Chamber assay, Or83b mutant flies. To be noted: olfaction-deficient Or83b mutants. It is filed as in vivo, Drosophila melanogaster. As for the experimental part:
as §1
(§5) Avoidance Evaluation Chambers: 3% agar (Fisher Scientific, Pittsburgh, Pa., United States of America) and 3% sucrose (Fisher Scientific) was dissolved in distilled H2O. […]
(§6) Data Analysis—Avoidance Behavior: Video was downloaded from the digital video camera to a computer using Image Video Mixer (Sony Electronics Inc.) and saved as an MPEG2 file. […] Image stacks for each trial were then analyzed at 10 or 15-minute intervals. […] Care was taken to make sure only flies were visible in each slice since fluorescence in the light box may be of different brightness in each image. […] To quantify this amount of time each space was occupied, the “mean gray value” for each side was calculated using the Analyze Measurements menu of ImageJ. […]

Another test deals with dTRPA1 mutant flies. In words: Avoidance Evaluation Chamber assay, dTRPA1 mutant flies. It is filed as in vivo, Drosophila melanogaster. Here is the method:
as §1, §5, §6

For another test, the system named is wild-type Canton S flies. The test is described as follows: Avoidance Evaluation Chamber assay, wild type flies. It counts as in vivo, Drosophila melanogaster. To be noted: for avoidance without the third antennal segment: wild type Canton S flies, third antennal segment removed. Here is the method:
as §2, §3, §4
Data Analysis—Avoidance Behavior: Video was downloaded from the digital video camera to a computer using Image Video Mixer (Sony Electronics Inc.) and saved as an MPEG2 file. The movie was then converted to and saved as an image stack at the rate of 1-3 images/second through Image Video Machine (DanDans Digital Media, Boston, Mass., United States of America). Image stacks for each trial were then analyzed at 10 or 15-minute intervals. Each interval was imported and converted to grayscale into ImageJ (Rasband, ImageJ, U.S. National Institutes of Health, Bethesda, Md., United States of America) as a stack and thresholded (Image→Threshold) so that only flies were visible. Care was taken to make sure only flies were visible in each slice since fluorescence in the light box may be of different brightness in each image. The Z-stack Standard Deviation function of ImageJ (Image→Stack→Z-stack→Standard Deviation) was used to visualize the position of all flies throughout each time interval. […] To quantify this amount of time each space was occupied, the “mean gray value” for each side was calculated using the Analyze Measurements menu of ImageJ. […]
Alternatively, the threshold intensity of a single frame in NIH ImageJ was determined automatically; this function highlighted only the flies against an otherwise white background. […]

In test [1] the test system is non-transfected S2R+ cells. In words: Calcium imaging of non-transfected S2R+ cells. It counts as cell-based, Drosophila. To be noted: 0.5% DEET, seven regions of interest. Here is the method: Calcium Imaging for S2R+ cells: the following protocol was followed:
100 μl of the following Fluo4+Fura-Red solution was added per well:
Added 200 μl of fly saline.
The ligand solution was added (with or without Ca++ fly saline).
Control cells were S2R+ cells mock-transfected (no DNA was introduced in the co-precipitation buffers).
After removal of the cell medium from the transfected cells of EXAMPLE 8, 100 μl of FLUO-4+ FURA-Red solution was added to well. This solution included 0.5 μl FLUO-4 stock, 0.5 μl FURA-Red stock, 0.5 μl Pluronic stock and 100 μl Stop solution. The cells were incubate in this solution at room temperature for 45 minutes. The saline was removed and 200 μl of fly saline was added. In Ca++ free conditions, the cells were washed with Ca++ free fly saline supplemented with 5 mM EGTA three times, and then 200 μl of Ca++ free, 5 mM EGTA fly saline was added. The ligand solution was then added with or without Ca++ fly saline.
The loaded cells were imaged by confocal microscopy using 488 nm excitation and Long Pass 650 nm and Band Pass 500-525 nm filters.

In the next test the test system is Drosophila flies. In words: Evaluation of activity level (speed of flies). It is filed as in vivo, Drosophila melanogaster. Here is the method:
Evaluation of Activity Level—Speed of Flies: Video of trials were downloaded and converted to image stacks and thresholded as described above. The ImageJ plug-in “Multitracker” was used to analyze the paths taken by each fly. The total distance traveled by all flies on each plate was calculated using the Multitracker plug-in, and this distance was divided by the time interval (in minutes) to gauge the average speed of flies on each plate in path lengths/minute.

In another test the target is T1, Drosophila painless (Drosophila melanogaster, UniProt Q9W0Y6).
T1 construct: expressed in transfected cells; host or cells: Drosophila S2R+ cells
T1 sequence (Q9W0Y6 1-913): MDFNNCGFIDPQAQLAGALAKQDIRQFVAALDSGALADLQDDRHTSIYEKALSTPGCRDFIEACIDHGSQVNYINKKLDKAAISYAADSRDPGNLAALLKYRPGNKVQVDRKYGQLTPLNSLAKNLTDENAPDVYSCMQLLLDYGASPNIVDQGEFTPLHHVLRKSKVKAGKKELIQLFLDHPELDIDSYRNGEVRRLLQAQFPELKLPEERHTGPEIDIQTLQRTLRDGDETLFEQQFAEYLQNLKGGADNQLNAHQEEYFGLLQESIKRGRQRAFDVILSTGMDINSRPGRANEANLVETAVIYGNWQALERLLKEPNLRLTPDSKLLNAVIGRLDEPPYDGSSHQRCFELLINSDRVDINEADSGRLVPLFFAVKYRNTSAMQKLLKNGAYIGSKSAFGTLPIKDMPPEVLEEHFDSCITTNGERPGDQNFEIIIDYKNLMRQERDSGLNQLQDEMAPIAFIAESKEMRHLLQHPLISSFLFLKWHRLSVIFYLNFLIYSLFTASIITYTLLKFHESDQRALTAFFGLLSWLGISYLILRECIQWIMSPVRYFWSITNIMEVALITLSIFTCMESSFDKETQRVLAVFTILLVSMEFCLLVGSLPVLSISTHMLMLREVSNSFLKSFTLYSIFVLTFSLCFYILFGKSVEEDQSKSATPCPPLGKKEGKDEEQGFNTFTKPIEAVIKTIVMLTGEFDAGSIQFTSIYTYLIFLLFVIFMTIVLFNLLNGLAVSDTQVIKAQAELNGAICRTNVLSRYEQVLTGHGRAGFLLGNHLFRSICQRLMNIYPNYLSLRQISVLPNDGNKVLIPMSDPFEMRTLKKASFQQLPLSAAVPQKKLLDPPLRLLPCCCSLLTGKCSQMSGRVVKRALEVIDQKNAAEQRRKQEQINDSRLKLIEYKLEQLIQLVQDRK
The test is described as follows: Calcium imaging of S2R+ cells transfected with painless. To be noted: 0.5% DEET, six regions of interest. It counts as cell-based. Here is the method:
Calcium Phosphate Transfection of Drosophila S2R+ Cells: Drosophila S2R+ cells were maintained at room temperature, in ambient atmosphere, in Schneider's Drosophila medium modified with L-glutamine plus 10% heat-inactivated fetal bovine serum. On the day before DNA transfection, cells were plated at a density of 1.2×10^5 cells per cm^2 growth area. DNA to be transfected was added to 250 mM CaCl2 (a volume equal to 1/20th of the volume of the medium in the dish of cells to be transfected) then this mixture was added dropwise to the same volume of 280 mM NaCl/1.5 mM/Na2HPO4/50 mM HEPES, pH 7.08 (2×HEPES buffered saline) while bubbling air gently through the liquid to mix. Precipitate was allowed to form at room temperature for 40 minutes. Immediately before introducing the precipitate, all growth medium was removed form the cells and fresh growth medium was added. Precipitate was added dropwise to the cells, and the dish was gently swirled. 18-24 hour later all liquid on the dish was withdrawn and was replaced with fresh growth medium. Expression was examined on the third day.
For the DEET experiments, 2 ml of culture medium containing 5.75×10^5 cells/ml was placed onto #1.5 25 mm diameter round glass cover slips placed in 6-well multiwell dishes. […]

Structures are written as SMILES.

Regarding `C=CCN=C=S` [AITC, allyl-isothiocyanate], in the test with painless mutant flies (painless-/- males, 1:10,000 dilution), the “preference in AITC avoidance test, males” value is reported as “slight preference for the non-AITC side”. In addition, in the test on painless mutant flies (painless-/- mutants, 1:10,000 dilution, compared to wild type Canton S), the “AITC detection / avoidance” value was “deficient in AITC detection”. Besides, the avoidance entry with Or83b mutants was “did not show the same avoidance of AITC”. Further, in the test with dTRPA1 mutant flies (1:10,000 AITC), the “avoidance of AITC over time” value is reported as “avoided the toxin for the first 30 minutes, but afterwards showed no preference for either side of the plate”. Also, in the test on wild-type Canton S flies, the “avoidance without the third antennal segment” value was “able to avoid”.
`CCN(CC)C(=O)c1cccc(C)c1` [DEET, N,N-diethyl-meta-toluamide]: the “avoidance of DEET in first 15 minutes” value with painless mutant flies (P-pain-rescue, pain1 transgenic flies (genomic painless rescue construct), females and males) is “some avoidance of DEET”. For the same compound, the “avoidance of DEET in first fifteen minutes after exposure” value is on record as “failed to avoid DEET” in the test on painless mutant flies (pain1/pain2 females and males); “failed to avoid DEET” with painless mutant flies (pain1 females and males); “clearly avoided DEET” in the test on wild-type Canton S flies (wild type Canton-S flies). Besides, the “time to avoid DEET, females relative to males” value in the test on painless mutant flies (painless females vs painless males) was “twice as long”. Moreover, the “avoidance of DEET, females” value with painless mutant flies (painless-/- females) is “barely avoiding at the last 65 min time point”. Moreover, the “time to begin avoiding DEET” value in the test on painless mutant flies (painless-/- males) was “about 30 minutes”; with wild-type Canton S flies (Canton S flies without antennae), “almost immediately”. Further, in the test on painless mutant flies (painless-/- males and females with surgically removed third antennal segments), the “avoidance of DEET without third antennal segments” value was “no avoidance of DEET”. In addition, the “avoidance of DEET in first fifteen minutes of the trial” value in the test with painless mutant flies (painless-Gal4 females and males) is listed as “failed to avoid DEET”. Further, the avoidance entry in the test on Or83b mutants is given as “able to avoid DEET”. Also, the “calcium response (FLUO-4 and FURA-RED AM channels)” value (in test [1]; on Drosophila painless) was “strong calcium increases” each time. The “activity level (path lengths/min) in the presence of DEET” value was “significantly less active” in the test with Drosophila flies (Canton S flies without the third antennal segment) and “increased their activity level” with Drosophila flies (wild type Canton S flies with intact third-antennal segments). Moreover, the “activity level in the presence of DEET” value in the test on Drosophila flies (Or83b flies compared to Canton S, TrpA1 and painless mutant counterparts) is on record as “much less active”. In addition, the “exposure time until consistent avoidance of DEET” value in the test on dTRPA1 mutant flies (0.2% concentration) was “less than 15 minutes”. Moreover, in the test on wild-type Canton S flies, the “avoidance without the third antennal segment” value is given as “able to avoid”. Moreover, the “lowest concentration in agar consistently avoided” value in the test on wild-type Canton S flies (wild-type Canton S flies, with and without the presence of sugar) was determined as 0.2%.
